Assay [1] deals with T1, full length recombinant Pim-3 protein (Homo sapiens, UniProt Q86V86).
T1 construct: by full length recombinant Pim-1, Pim-2, or Pim-3 protein; purchased Millipore (UK)
Kind of assay: Pim-3 enzyme assay (HTRF, phosphorylation of biotinylated-BAD (S112) peptide). Conditions: read-out: Pim3 IC50. Format: biochemical. The essentials:
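Full-length recombinant Pim-3 phosphorylates biotinylated BAD (S112) peptide in 60 mM Hepes pH 7.0, 0.05% BSA, 2 mM DTT; reaction stopped with 3 mM EDTA. Phospho-BAD detected by HTRF (Eu anti-phospho-BAD S112 antibody, streptavidin-APC). IC50 from percent-of-control values fitted to a 4-parameter logistic model.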
On the technique in general: In TR-FRET formats the signal depends on donor and acceptor labels being close together.

In assay [2] the target is T2, full length recombinant Pim-2 protein (Homo sapiens, UniProt Q9P1W9).
T2 construct: by full length recombinant Pim-1, Pim-2, or Pim-3 protein; hexahistidine tag followed by a thrombin cleavage site (N); made in house; host or cells: Sf9 (baculovirus) or E. coli (pET28)
T2 sequence (Q9P1W9 whole entry): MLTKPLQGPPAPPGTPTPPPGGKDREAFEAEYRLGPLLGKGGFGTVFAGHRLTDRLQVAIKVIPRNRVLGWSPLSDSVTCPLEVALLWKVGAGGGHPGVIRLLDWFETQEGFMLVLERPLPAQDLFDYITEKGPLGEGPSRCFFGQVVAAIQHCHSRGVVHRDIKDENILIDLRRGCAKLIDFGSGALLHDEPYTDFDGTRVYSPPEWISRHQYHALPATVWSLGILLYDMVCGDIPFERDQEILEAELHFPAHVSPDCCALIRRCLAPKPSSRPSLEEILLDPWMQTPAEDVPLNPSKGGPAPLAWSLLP
Description: Pim-2 enzyme assay (HTRF, phosphorylation of biotinylated-BAD (S112) peptide). Conditions: enzyme assay, Pim-2; read-out: Pim2_IC50. It is filed as biochemical. In short, it runs like this:
(§1)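 Inhibition is reported as IC50 from a 4-parameter logistic fit of percent-of-control HTRF signal, which tracks phospho-BAD (S112) formed by full-length human Pim-1 or Pim-2. Reactions ran in 60 mM Hepes, pH 7.0, 0.05% BSA, 2 mM DTT.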

Assay [3] addresses T3, Pim-1 stably transfected into the U2OS human osteogenic sarcoma line (Homo sapiens, UniProt P11309).
T3 construct: expressed in transfected cells; host or cells: U2OS human osteogenic sarcoma line
Description: Pim cell assay, phospho-BAD normalized against total BAD, U2OS stably transfected with Pim-1. The settings on record: read-out: Pim1_Cell_IC50. It is filed as cell-based. In short, it runs like this:
(§2)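 U2OS cells stably expressing Pim-1 or Pim-2 were plated overnight at 37 °C, then dosed over a 10-point curve (final 0.3% DMSO; DMSO alone as high control). Lysates assayed for phospho- and total BAD by Meso Scale immunoassay; % phosphoprotein = (2×phospho)/(phospho+total)×100.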

Assay [4] deals with T4, full length recombinant Pim-1 protein (Homo sapiens, UniProt P11309).
T4 construct: by full length recombinant Pim-1, Pim-2, or Pim-3 protein; hexahistidine tag followed by a thrombin cleavage site (N); made in house; host or cells: Sf9 (baculovirus) or E. coli (pET28)
T4 sequence (P11309 whole entry): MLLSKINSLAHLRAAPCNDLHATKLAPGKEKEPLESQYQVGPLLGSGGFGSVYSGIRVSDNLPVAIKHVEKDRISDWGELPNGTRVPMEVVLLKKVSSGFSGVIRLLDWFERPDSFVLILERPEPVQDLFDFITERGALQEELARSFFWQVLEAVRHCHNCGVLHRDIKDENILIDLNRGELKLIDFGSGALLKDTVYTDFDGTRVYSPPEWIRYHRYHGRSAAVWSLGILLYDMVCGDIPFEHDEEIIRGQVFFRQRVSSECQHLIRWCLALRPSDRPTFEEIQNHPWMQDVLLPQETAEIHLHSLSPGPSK
Kind of assay: Pim-1 enzyme assay (HTRF, phosphorylation of biotinylated-BAD (S112) peptide). Format: biochemical. Conditions: enzyme assay, Pim-1; read-out: Pim_1_IC50. In short, it runs like this: as §1

In assay [5] the target is T5, Pim-2 stably transfected into the U2OS human osteogenic sarcoma line (Homo sapiens, UniProt Q9P1W9).
T5 construct: expressed in transfected cells; host or cells: U2OS human osteogenic sarcoma line
T5 sequence (Q9P1W9 whole entry): as the sequence (Q9P1W9 whole entry) above
Kind of assay: Pim cell assay, phospho-BAD normalized against total BAD, U2OS stably transfected with Pim-2. Also: high dose 31.6 µM. Format: cell-based. The settings on record: read-out: Pim2_Cell_IC50. The essentials: as §2

The mark [6] stands for this setting: U2OS cells stably transfected with Pim-1, phospho-BAD, high dose […].
[7] abbreviates: U2OS cells stably transfected with Pim-2, phospho-BAD, high dose […].

Like-named read-outs stand apart in the source and are kept apart here. Where only a bound is given, the exact number is not on record here.

T3 sequence (P11309 whole entry): as the sequence (P11309 whole entry) above

Take `CN1CCN(c2ccc3[nH]nc(-c4cncc(N5CCC(N)CC5)n4)c3c2)C1=O` [Example 92, 1-(3-(6-(4-amino-1-piperidinyl)-2-pyrazinyl)-1H-indazol-5-yl)-3-methyl-2-imidazolidinone]: the IC50 in assay [1] was 5 nM; in assay [2], 57 nM; in assay [3], 2230 nM; in assay [4], 9 nM; in assay [5], greater than 31600 nM.
Regarding `CC(C)(C)C(=O)Nc1cccc(-c2ccc3[nH]nc(-c4cncc(N5CCC(N)CC5)n4)c3c2)n1` [Example 93, N-(6-(3-(6-(4-amino-1-piperidinyl)-2-pyrazinyl)-1H-indazol-5-yl)-2-pyridinyl)-2,2-dimethylpropanamide], the IC50 in assay [1] was 82 nM; in assay [2], greater than 1000 nM; in assay [3] (setting [6]), 487 nM; in assay [4] it was 13 nM; in assay [5] (setting [7]), greater than 31600 nM.
For `NC1CCN(c2cncc(-c3n[nH]c4ccc(-c5ccc6cc[nH]c6n5)cc34)n2)CC1` [Example 95, 1-(6-(5-(1H-pyrrolo[2,3-b]pyridin-6-yl)-1H-indazol-3-yl)-2-pyrazinyl)-4-piperidinamine], in that order: 3 nM, 82 nM, 384 nM, 5 nM and greater than 31600 nM.
As to `Nc1ncc(-c2ccc3[nH]nc(-c4cncc(N5CCC(N)CC5)n4)c3c2)cn1` [Example 97, 5-(3-(6-(4-amino-1-piperidinyl)-2-pyrazinyl)-1H-indazol-5-yl)-2-pyrimidinamine], the IC50 in assay [1] was 1 nM; in assay [2], 27 nM; in assay [3] (setting [6]), 3030 nM; in assay [4] it was 3 nM; in assay [5] (setting [7]), greater than 31600 nM.
As to `NC1CCN(c2cncc(-c3n[nH]c4ccc(-c5cn6ccnc6cn5)cc34)n2)CC1` [Example 99, 1-(6-(5-imidazo[1,2-a]pyrazin-6-yl-1H-indazol-3-yl)-2-pyrazinyl)-4-piperidinamine], the IC50 is 5 nM in assay [1]; 57 nM in assay [2]; 4720 nM in assay [3] (setting [6]); 3 nM in assay [4]; greater than 31600 nM in assay [5] (setting [7]).
The like results for `Nc1cc(-c2ccc3[nH]nc(-c4cncc(N5CCC(N)CC5)n4)c3c2)ccn1` [Example 100, 4-(3-(6-(4-amino-1-piperidinyl)-2-pyrazinyl)-1H-indazol-5-yl)-2-pyridinamine] were, in that order, 2 nM, 18 nM, 1250 nM, 1 nM and greater than 31600 nM.
Regarding `COc1ccc2c(-c3ccc4[nH]nc(-c5cncc(N6CCC(N)CC6)n5)c4c3)ccnc2c1` [Example 101, 1-(6-(5-(7-methoxy-4-quinolinyl)-1H-indazol-3-yl)-2-pyrazinyl)-4-piperidinamine], the IC50 in assay [1] was 10 nM; in assay [2], 55 nM; in assay [3] (setting [6]) it was 269 nM; in assay [4] it was 4 nM; in assay [5] (setting [7]) it was greater than 31600 nM.
`NC1CCN(c2cncc(-c3n[nH]c4ccc(-c5ccncc5)cc34)n2)CC1` [Example 102, 1-(6-(5-(4-pyridinyl)-1H-indazol-3-yl)-2-pyrazinyl)-4-piperidinamine]: the IC50 in assay [1] worked out at 3 nM; in assay [2], 20 nM; in assay [3] (setting [6]) it was 199 nM; in assay [4], 2 nM; in assay [5] (setting [7]), 5000 nM.
For `COc1cncc(-c2ccc3[nH]nc(-c4cncc(O[C@@H]5CCCNC5)n4)c3c2)c1` [Example 114, 5-(5-methoxy-3-pyridinyl)-3-(6-((3R)-3-piperidinyloxy)-2-pyrazinyl)-1H-indazole], in that order: 12 nM, 77 nM, 172 nM, 6 nM and 8500 nM.
`Fc1cncc(-c2ccc3[nH]nc(-c4cncc(O[C@@H]5CCCNC5)n4)c3c2)c1` [Example 115, 5-(5-fluoro-3-pyridinyl)-3-(6-((3R)-3-piperidinyloxy)-2-pyrazinyl)-1H-indazole]: the IC50 was 20 nM in assay [1]; 155 nM in assay [2]; 958 nM in assay [3] (setting [6]); 33 nM in assay [4]; greater than 31600 nM in assay [5] (setting [7]).
Regarding `c1cc2cc(-c3ccc4[nH]nc(-c5cncc(O[C@@H]6CCCNC6)n5)c4c3)cnc2[nH]1` [Example 121, 3-(6-((3R)-3-piperidinyloxy)-2-pyrazinyl)-5-(1H-pyrrolo[2,3-b]pyridin-5-yl)-1H-indazole], the IC50 was 5 nM in assay [1]; 23 nM in assay [2]; 157 nM in assay [3] (setting [6]); 3 nM in assay [4]; 3010 nM in assay [5] (setting [7]).
As to `CC(C)NC(=O)c1ccc(F)c(-c2ccc3[nH]nc(-c4cncc(O[C@@H]5CCCNC5)n4)c3c2)c1` [Example 122, 4-fluoro-N-(1-methylethyl)-3-(3-(6-((3R)-3-piperidinyloxy)-2-pyrazinyl)-1H-indazol-5-yl)benzamide], the IC50 in assay [1] is 20 nM; in assay [2] it was 14 nM; in assay [3] (setting [6]), 287 nM; in assay [4], 16 nM; in assay [5] (setting [7]), 1850 nM.
With `CC(C)c1ccnc(-c2ccc3[nH]nc(-c4cncc(O[C@@H]5CCCNC5)n4)c3c2)n1` [Example 126, 5-(4-(1-methylethyl)-2-pyrimidinyl)-3-(6-((3R)-3-piperidinyloxy)-2-pyrazinyl)-1H-indazole], the IC50 in assay [1] is 6 nM; in assay [2], 161 nM; in assay [3] (setting [6]), 563 nM; in assay [4], 13 nM; in assay [5] (setting [7]) it was greater than 31600 nM.
As to `c1cc(C2CC2)nc(-c2ccc3[nH]nc(-c4cncc(O[C@@H]5CCCNC5)n4)c3c2)n1` [Example 127, 5-(4-cyclopropyl-2-pyrimidinyl)-3-(6-((3R)-3-piperidinyloxy)-2-pyrazinyl)-1H-indazole], the IC50 in assay [1] was 6 nM; in assay [2], 67 nM; in assay [3] (setting [6]), 1020 nM; in assay [4], 13 nM; in assay [5] (setting [7]), greater than 31600 nM.
Consider `CN1CCOc2cc(-c3ccc4[nH]nc(-c5cncc(O[C@@H]6CCCNC6)n5)c4c3)cnc21` [Example 130, 4-methyl-7-(3-(6-((3R)-3-piperidinyloxy)-2-pyrazinyl)-1H-indazol-5-yl)-3,4-dihydro-2H-pyrido[3,2-b][1,4]oxazine], for which the IC50 in assay [1] is 8 nM; in assay [2], 25 nM; in assay [3] (setting [6]) it was 208 nM; in assay [4], 7 nM; in assay [5] (setting [7]), 9240 nM.
In the case of `COc1cccc(-c2ccc3[nH]nc(-c4cncc(O[C@@H]5CCCNC5)n4)c3c2)c1F` [Example 131, 5-(2-fluoro-3-methoxyphenyl)-3-(6-((3R)-3-piperidinyloxy)-2-pyrazinyl)-1H-indazole], the IC50 in assay [1] is 5 nM; in assay [2], 15 nM; in assay [3] (setting [6]), 151 nM; in assay [4], 2 nM; in assay [5] (setting [7]), 8910 nM.
For the compound `O=C(NC1CC1)c1cccc(-c2ccc3[nH]nc(-c4cncc(O[C@@H]5CCCNC5)n4)c3c2)c1` [Example 132, N-cyclopropyl-3-(3-(6-((3R)-3-piperidinyloxy)-2-pyrazinyl)-1H-indazol-5-yl)benzamide], the IC50 came to 14 nM in assay [1]; 14 nM in assay [2]; 245 nM in assay [3] (setting [6]); 8 nM in assay [4]; 3050 nM in assay [5] (setting [7]).
For the compound `Fc1ccccc1-c1ccc2[nH]nc(-c3cncc(O[C@@H]4CCCNC4)n3)c2c1` [Example 133, 5-(2-fluorophenyl)-3-(6-((3R)-3-piperidinyloxy)-2-pyrazinyl)-1H-indazole], the IC50 in assay [1] amounted to 6 nM; in assay [2], 17 nM; in assay [3] (setting [6]) it was 435 nM; in assay [4], 5 nM; in assay [5] (setting [7]) it was 7840 nM.
Consider `c1cn2cc(-c3ccc4[nH]nc(-c5cncc(O[C@@H]6CCCNC6)n5)c4c3)ncc2n1` [Example 138, 6-(3-(6-((3R)-3-piperidinyloxy)-2-pyrazinyl)-1H-indazol-5-yl)imidazo[1,2-a]pyrazine], for which the IC50 in assay [1] is 14 nM; in assay [2] it was 185 nM; in assay [3] (setting [6]), 921 nM; in assay [4], 5 nM; in assay [5] (setting [7]), greater than 31600 nM.
With `O=C(NC1CC1)c1ccc(F)c(-c2ccc3[nH]nc(-c4cncc(O[C@@H]5CCCNC5)n4)c3c2)c1` [Example 139, N-cyclopropyl-4-fluoro-3-(3-(6-((3R)-3-piperidinyloxy)-2-pyrazinyl)-1H-indazol-5-yl)benzamide], the IC50 worked out at 12 nM in assay [1]; 13 nM in assay [2]; 454 nM in assay [3] (setting [6]); 13 nM in assay [4]; 3780 nM in assay [5] (setting [7]).

The values are drawn from US9090593B2, “Bicyclic compounds as Pim inhibitors” (AMGEN INC., priority 2010, dated 2015).
